Laboratory results from paper PMC11154460, “Effects of Aqueous Boundary Layers and Paracellular Transport on the Efflux Ratio as a Measure of Active Transport Across Cell Layers” (Pharmaceutics, 2024).
Like-named read-outs stand apart in the source and are kept apart here. One block for each compound: values may come before it.

What was measured:
human P-gp [1] = biological target: T1, human P-gp (Homo sapiens, UniProt P08183); assay: Bi-directional transport (monolayer efflux) study across MDCK-MDR1 cell monolayers; conditions: for ER: HPS conditions
Description: (§1) As such, for this study, MDCK-II-MDR1 cells transfected with human MDR1 for P-gp expression were obtained from The Netherlands Cancer Institute (Amsterdam, The Netherlands).
(§2) For transport experiments, MDCK-MDR1 cells were used between passages 20 and 40. Cells were seeded onto 12-well PET inserts (CellQART, Northeim, Germany; pore size: 0.4 µm; filter thickness: 11.5 µm) at a density of 1.5 × 10^5 cells/insert. Inserts with a high porosity of 100 × 10^6 pores/cm ​^2 or low porosity of 2 × 10 ​^6 pores/cm ​^2 were used. After seeding, cells were maintained as described in Section 3.1.2 for 4 days to ensure confluent cell monolayer formation. The cell medium was exchanged one day before the transport experiments were performed. Prior to the transport experiments, the inserts were washed with Hank’s balanced salt solution (HBSS) to remove residual DMEM. […] For all other inserts, no inhibitor was used.
(§3) The apical-to-basolateral ( A→B direction) as well as the basolateral-to-apical ( B→A direction) transport rates of the test compounds were determined in duplicate with varying stirring and filter conditions. The three conditions tested were as follows: high-porosity filters, stirred (HPS); high-porosity filters, unstirred (HPU); and low-porosity filters, stirred (LPS). The transport buffer was HBSS with 25 mM HEPES at pH 7.4. Stock solutions were prepared in the transport buffer, and all solutions were pre-warmed to 37 °C. […] The pHs of the buffer and stock solutions prior to the experiment as well as the pHs of all samples after experiment completion were controlled with a rapid pH automated pH meter (Hudson Robotics, Inc., Springfield, NJ, USA). The pHs remained within a range of ±0.15.
(§4) Inserts were used in 12-well plates (TPP Techno Plastic Products AG, Trasadingen, Switzerland), the basolateral compartment volume was 1.6 mL, and the apical compartment volume was 0.5 mL. The transport experiments were initiated by replacing the HBSS with transport buffer and the test compound solution.
(§5) For measurement of transport in the A→B direction: Inserts were placed in 12-well plates containing transport buffer in the basolateral compartment, after which, the test compound solution was added to the apical compartment. At every sampling step, each insert was placed into a new well containing fresh, warmed assay buffer, and the old buffer was sampled. Sampling occurred at four consistent time intervals.
(§6) For measurement of transport in the B→A direction: Inserts were placed in 12-well plates containing the test compound solution in the basolateral compartment (donor), after which, transport buffer was added to the apical compartment. At each sampling time step, 300 μ L was sampled from the apical compartment (the maximum amount that could be removed without disturbing the cell layer) and replaced with an equal volume of warmed, fresh transport buffer. Sampling occurred at four consistent time intervals. Time intervals for sampling were determined uniquely for each compound and direction measured to ensure that sink conditions would be maintained throughout the experiment.

P-gp (MDR1) [2] = biological target: T2, P-gp (MDR1) (Homo sapiens, UniProt P08183); assay: as above; conditions: human, HPS conditions; for Papp A→B / Papp B→A: recovery-corrected mean ± SD, n = 3; for recovery: MDCK-MDR1 cell monolayers
Description: as §1, §2, §3, §4, §5, §6

P-gp (MDR1) [3] = biological target: T2, P-gp (MDR1); assay: in vitro; conditions: for efflux ratio: MDCK-MDR1, pH 7.4, ER (Papp,B→A over Papp,A→B); for efflux ratio / Papp A→B / Papp B→A: pH 7.4 ISO-pH, 12 μM (loperamide 10 μM); for Papp A→B: MDCK-MDR1, pH 7.4, Papp,A→B; for Papp A→B / Papp B→A: recovery-corrected mean ± SD; for Papp B→A: MDCK-MDR1, pH 7.4, Papp,B→A; for recovery: pH 7.4, Recovery, pH 7.4, MDCK-MDR1, 12 μM (loperamide 10 μM)
Description: as §1, §2, §3, §4, §5, §6

human P-gp [4] = biological target: T1, human P-gp; conditions: MDCK-MDR1, pH 7.4
Description: as §1, §2, §3, §4, §5, §6

[5] = HPS: high-porosity filter, stirred
[6] = HPU: high-porosity filter, unstirred
[7] = LPS: low-porosity filter, stirred

T2 sequence (P08183 whole entry): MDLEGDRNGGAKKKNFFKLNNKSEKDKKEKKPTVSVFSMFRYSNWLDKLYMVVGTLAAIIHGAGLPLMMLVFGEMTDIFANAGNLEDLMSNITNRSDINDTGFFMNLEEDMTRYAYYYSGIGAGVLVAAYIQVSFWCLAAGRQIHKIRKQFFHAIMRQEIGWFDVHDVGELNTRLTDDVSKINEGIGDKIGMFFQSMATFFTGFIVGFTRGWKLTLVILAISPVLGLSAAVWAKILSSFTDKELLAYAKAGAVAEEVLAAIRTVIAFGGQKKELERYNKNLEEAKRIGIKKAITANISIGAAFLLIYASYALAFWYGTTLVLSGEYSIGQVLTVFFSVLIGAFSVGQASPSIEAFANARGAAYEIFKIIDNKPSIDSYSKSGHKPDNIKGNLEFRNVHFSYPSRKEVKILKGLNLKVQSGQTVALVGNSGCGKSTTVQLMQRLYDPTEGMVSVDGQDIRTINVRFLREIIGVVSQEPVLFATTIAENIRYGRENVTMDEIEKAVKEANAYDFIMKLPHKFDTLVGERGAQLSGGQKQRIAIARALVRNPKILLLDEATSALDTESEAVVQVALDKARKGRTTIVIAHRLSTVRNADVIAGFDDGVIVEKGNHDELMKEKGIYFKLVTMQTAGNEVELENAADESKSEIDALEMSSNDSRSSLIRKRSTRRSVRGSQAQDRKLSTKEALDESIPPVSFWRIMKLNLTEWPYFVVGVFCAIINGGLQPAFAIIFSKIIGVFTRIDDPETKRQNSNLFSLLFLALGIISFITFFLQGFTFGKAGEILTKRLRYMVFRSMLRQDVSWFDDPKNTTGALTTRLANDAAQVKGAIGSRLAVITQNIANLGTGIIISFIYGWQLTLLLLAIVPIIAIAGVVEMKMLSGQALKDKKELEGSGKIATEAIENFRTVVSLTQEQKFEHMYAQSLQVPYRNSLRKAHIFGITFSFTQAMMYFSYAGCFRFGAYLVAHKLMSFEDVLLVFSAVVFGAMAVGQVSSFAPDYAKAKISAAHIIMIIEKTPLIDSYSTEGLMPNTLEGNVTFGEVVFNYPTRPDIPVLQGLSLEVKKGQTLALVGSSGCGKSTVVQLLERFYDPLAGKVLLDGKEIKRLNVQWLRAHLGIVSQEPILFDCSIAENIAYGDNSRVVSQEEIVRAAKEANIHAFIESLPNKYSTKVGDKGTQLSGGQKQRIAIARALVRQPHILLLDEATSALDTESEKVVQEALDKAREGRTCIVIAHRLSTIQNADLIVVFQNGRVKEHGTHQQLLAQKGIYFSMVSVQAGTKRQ
T1 sequence (P08183 whole entry): as above

- ER (human P-gp [1]; pHext 6 (ISO-pH)): one
- ER (human P-gp [1]; pHext 7 (ISO-pH)): 6.5
- ER (human P-gp [1]; pHext 7 (ISO-pH), listed as doxorubicin): > 2
- efflux ratio (P-gp (MDR1) [2]; MDCK-MDR1, pH 6, ER, pHext 6 (ISO-pH)): 1.6
- Papp A→B (P-gp (MDR1) [2]; MDCK-MDR1, pH 6, Papp,A→B, pHext 6 (ISO-pH)): 0.14 ± 0.04 ×10⁻⁶ cm/s
- Papp B→A (P-gp (MDR1) [2]; MDCK-MDR1, pH 6, Papp,B→A, pHext 6 (ISO-pH)): 0.23 ± 0.08 ×10⁻⁶ cm/s
- Papp A→B (P-gp (MDR1) [2]; MDCK-MDR1, pH 7, Papp,A→B, pHext 7 (ISO-pH)): 0.12 ± 0.03 ×10⁻⁶ cm/s
- Papp B→A (P-gp (MDR1) [2]; MDCK-MDR1, pH 7, Papp,B→A, pHext 7 (ISO-pH)): 0.78 ± 0.36 ×10⁻⁶ cm/s
- recovery (P-gp (MDR1) [2]; pH 6, Recovery, pHext 6 (ISO-pH)): 89.3 to 95.3%
- recovery (P-gp (MDR1) [2]; pH 7, Recovery, pHext 7 (ISO-pH)): 87.8 to 93.1%
Compound: COc1cccc2c1C(=O)c1c(O)c3c(c(O)c1C2=O)C[C@@](O)(C(=O)CO)C[C@@H]3O[C@H]1C[C@H](N)[C@H](O)[C@H](C)O1 [Doxorubicin, doxorubicin]

Compound: CN(C)C(=O)C(CCN1CCC(O)(c2ccc(Cl)cc2)CC1)(c1ccccc1)c1ccccc1 [Loperamide, loperamide]
- efflux ratio (P-gp (MDR1) [3]; [5]): 2.7 ± 0.73
- efflux ratio (P-gp (MDR1) [3]; [6]): 2.8 ± 0.87
- efflux ratio (P-gp (MDR1) [3]; [7]): 3.2 ± 0.91
- Papp A→B (P-gp (MDR1) [3]; [5]): 46.7 ± 5.03 ×10⁻⁶ cm/s
- Papp A→B (P-gp (MDR1) [3]; [6]): 9.8 ± 2.84 ×10⁻⁶ cm/s
- Papp A→B (P-gp (MDR1) [3]; [7]): 5.65 ± 0.42 ×10⁻⁶ cm/s
- Papp B→A (P-gp (MDR1) [3]; [5]): 126 ± 27.8 ×10⁻⁶ cm/s
- Papp B→A (P-gp (MDR1) [3]; [6]): 29.2 ± 3.31 ×10⁻⁶ cm/s
- Papp B→A (P-gp (MDR1) [3]; [7]): 15.9 ± 4.24 ×10⁻⁶ cm/s
- recovery (P-gp (MDR1) [3]; [5]): 75 to 88.1%
- recovery (P-gp (MDR1) [3]; [6]): 62.3 to 81.3%
- recovery (P-gp (MDR1) [3]; [7]): 69.2 to 86.1%
- mean ERs (human P-gp [4]): greater than two

- mean ERs (human P-gp [1]; over the conditions HPS, LPS, HPU, pH 7.4): greater than two
Compound: C=C[C@H]1C[N@@]2CC[C@H]1C[C@@H]2[C@@H](O)c1ccnc2ccc(OC)cc12 [Quinidine, quinidine]
